# Test results from patent publication US10036048B1, “Process for obtaining a naphthoquinone derivative from Streptomyces sp” (KING SAUD UNIVERSITY, priority 2017, dated 2018).
# Legend:
# Enterobacter aerogenes = test: Minimum inhibitory concentration (MIC), broth dilution; details: Klebsiella aerogenes, 24 h, read-out: Minimum Inhibitory Concentration (MIC)
# Proteus vulgaris = test: as above; details: 24 h, read-out: Minimum Inhibitory Concentration (MIC)
# Malassezia pachydermatis = test: Minimum inhibitory concentration (MIC), fungi; details: read-out: Minimum Inhibitory Concentration (MIC)
# [1] = system: Escherichia coli (ESBL-3904); test: Minimum inhibitory concentration (MIC), clinical isolate; details: 24 h, read-out: Minimum Inhibitory Concentration (MIC)
# [2] = system: Staphylococcus epidermidis; test: Minimum inhibitory concentration (MIC), broth dilution; details: 24 h, read-out: Minimum Inhibitory Concentration (MIC)
# Staphylococcus aureus = test: as above; details: 24 h, read-out: Minimum Inhibitory Concentration (MIC)
# Shigella flexneri = test: as above; details: 24 h, read-out: Minimum Inhibitory Concentration (MIC)
# [3] = system: Escherichia coli (ESBL-3984); test: Minimum inhibitory concentration (MIC), clinical isolate; details: 24 h, read-out: Minimum Inhibitory Concentration (MIC)
# Micrococcus luteus = test: Minimum inhibitory concentration (MIC), broth dilution; details: 24 h, read-out: Minimum Inhibitory Concentration (MIC)
# [4] = system: A549 lung adenocarcinoma cancer cell line; test: Cytotoxic activity (MTT, absorbance at 540 nm); assay type: cell-based, human
# Procedure: A549 lung adenocarcinoma cancer cell line was obtained from the National Institute of Cell Sciences, Pune. A549 cell line was maintained in complete tissue culture medium Dulbecco's Modified Eagle's Medium with 10% Fetal Bovine Serum and 2 mM L-Glutamine, along with antibiotics (about 100 International Unit/mL of penicillin, 100 μg/mL of streptomycin) with the pH adjusted to 7.2. The cytotoxicity was determined according to the method of Balachandran et al., (2013) with some changes. Cells (5000 cells/well) were seeded in 96 well plates containing medium with different concentrations such as 100, 80, 60, 40, 20, and 10 μg/mL. The cells were cultivated at 37° C. with 5% CO2 and 95% air in 100% relative humidity. After various durations of cultivation, the solution in the medium was removed. An aliquot of 100 μL of medium containing 1 mg/mL of 3-(4,5-dimethylthiazol-2-yl)-2,5-diphenyl-tetrazolium bromide was loaded in the plate. The cells were cultured for 4 h and then the solution in the medium was removed. An aliquot of 100 μL of DMSO was added to the plate, which was shaken until the crystals were dissolved. The cytotoxicity against cancer cells was determined by measuring the absorbance of the converted dye at 540 nm in an Enzyme linked immune sorbant assay (ELISA) reader. Cytotoxicity of each sample was expressed as the half maximal inhibitory concentration (IC50) value. The IC50 value is the concentration of test sample that causes 50% inhibition of cell growth, averaged from three replicate experiments.
# [5] = system: Klebsiella pneumoniae (ESBL-3967); test: Minimum inhibitory concentration (MIC), clinical isolate; details: 24 h, read-out: Minimum Inhibitory Concentration (MIC)
# [6] = system: Staphylococcus aureus (MRSA); test: as above; details: 24 h, read-out: Minimum Inhibitory Concentration (MIC)
# [7] = system: Klebsiella pneumoniae (ESBL-3971); test: as above; details: 24 h, read-out: Minimum Inhibitory Concentration (MIC)
# Klebsiella pneumoniae = test: Minimum inhibitory concentration (MIC), broth dilution; details: 24 h, read-out: Minimum Inhibitory Concentration (MIC)
# Bacillus subtilis = test: as above; details: 24 h, read-out: Minimum Inhibitory Concentration (MIC)
# [8] = system: Klebsiella pneumoniae (ESBL-3894); test: Minimum inhibitory concentration (MIC), clinical isolate; details: 24 h, read-out: Minimum Inhibitory Concentration (MIC)
# [9] = system: Kiebsiella pneumoniae (ESBL-75799); test: as above; details: 24 h, read-out: Minimum Inhibitory Concentration (MIC)
# Pseudomonas aeruginosa = test: Minimum inhibitory concentration (MIC), broth dilution; details: 24 h, read-out: Minimum Inhibitory Concentration (MIC)
# Candida albicans = test: Minimum inhibitory concentration (MIC), fungi; details: read-out: Minimum Inhibitory Concentration (MIC)
# Salmonella typhimurium = test: Minimum inhibitory concentration (MIC), broth dilution; details: Salmonella enterica, 24 h, read-out: Minimum Inhibitory Concentration (MIC)
# Salmonella paratyphi-B = test: as above; assay type: cell-based; details: 24 h at 37° C.
# [10] = system: Streptomyces sp. isolate ERINLG-201; test: Antibiotic sensitivity of the isolate; assay type: cell-based
# Procedure: (ERINLG-201). The Streptomyces sp. isolate ERINLG-201 was recovered from Kodanad forest, (Southern Western Ghats) Tamil Nadu, India. The strain was Gram-positive filamentous bacterium. The culture characteristics of the new isolate were observed after 7, 14 and 21 days of incubation on different media. The color of the substrate mycelia was white. […] The temperature for growth ranged from 25 to 37° C. with optimum of 30° C. and the pH range was 6-12 with normal pH of 7. Utilization of various carbon sources by ERINLG-201 indicated a wide pattern of carbon source assimilation. […] The partial 16S rRNA gene sequences of isolate ERINLG-201 have been deposited in the GenBank database under accession number KC820651.
compound,measurement,setting,value
"CN1C(=O)N2CC(C)(OC3=C2C(=O)c2ccccc2C3=O)c2ccccc21 (stereo not drawn) [C-5, Bluemomycin]",MIC,Enterobacter aerogenes,12.5 µg/mL
same,MIC,Proteus vulgaris,100 µg/mL
same,MIC,Malassezia pachydermatis,50 µg/mL
same,MIC,[1],25 µg/mL
same,MIC,[2],50 µg/mL
same,MIC,Staphylococcus aureus,> 100 µg/mL
same,MIC,Shigella flexneri,12.5 µg/mL
same,MIC,[3],12.5 µg/mL
same,MIC,Micrococcus luteus,25 µg/mL
same,% (cytotoxicity),[4]; 5 μg/mL,10.5%
same,% (cytotoxicity),[4]; 10 μg/mL,26.3%
same,% (cytotoxicity),[4]; 20 μg/mL,51.7%
same,% (cytotoxicity),[4]; 40 μg/mL,60.2%
same,% (cytotoxicity),[4]; 60 μg/mL,68.6%
same,% (cytotoxicity),[4]; 80 μg/mL,78.6%
same,% (cytotoxicity),[4]; 100 μg/mL,88.7%
same,MIC,[5],6.25 µg/mL
same,MIC,[6],25 µg/mL
same,MIC,[7],> 100 µg/mL
same,MIC,Klebsiella pneumoniae,6.25 µg/mL
same,MIC,Bacillus subtilis,50 µg/mL
same,MIC,[8],12.5 µg/mL
same,MIC,[9],12.5 µg/mL
same,MIC,Pseudomonas aeruginosa,12.5 µg/mL
same,MIC,Candida albicans,50 µg/mL
same,MIC,Salmonella typhimurium,12.5 µg/mL
same,MIC,Salmonella paratyphi-B,25 µg/mL
CC(=O)N1CCN(c2ccc(OCC3COC(Cn4ccnc4)(c4ccc(Cl)cc4Cl)O3)cc2)CC1 (stereo not drawn) [Ketoconazole],MIC,Malassezia pachydermatis,25 µg/mL
same,MIC,Candida albicans,25 µg/mL
[H]/N=C(/N)N[C@H]1[C@H](O)[C@@H](O)[C@H](O[C@@H]2O[C@@H](C)[C@](O)(C=O)[C@H]2O[C@@H]2O[C@@H](CO)[C@H](O)[C@@H](O)[C@@H]2NC)[C@@H](N/C(N)=N\[H])[C@@H]1O [Streptomycin],MIC,Enterobacter aerogenes,25 µg/mL
same,MIC,Proteus vulgaris,6.25 µg/mL
same,MIC,[1],25 µg/mL
same,MIC,[2],25 µg/mL
same,MIC,Staphylococcus aureus,6.25 µg/mL
same,MIC,Shigella flexneri,6.25 µg/mL
same,MIC,[3],25 µg/mL
same,MIC,Micrococcus luteus,6.25 µg/mL
same,MIC,[5],25 µg/mL
same,MIC,[6],6.25 µg/mL
same,MIC,[7],6.25 µg/mL
same,MIC,Klebsiella pneumoniae,25 µg/mL
same,MIC,Bacillus subtilis,25 µg/mL
same,MIC,[8],6.25 µg/mL
same,MIC,[9],25 µg/mL
same,MIC,Pseudomonas aeruginosa,25 µg/mL
same,MIC,Salmonella typhimurium,25 µg/mL
same,MIC,Salmonella paratyphi-B,6.25 µg/mL
NCC[C@H](O)C(=O)N[C@@H]1C[C@H](N)[C@@H](O[C@H]2O[C@H](CN)[C@@H](O)[C@H](O)[C@H]2O)[C@H](O)[C@H]1O[C@H]1O[C@H](CO)[C@@H](O)[C@H](N)[C@H]1O [amikacin],sensitivity of ERINLG-201 towards antibiotic,[10],sensitivity
CC1(C)S[C@@H]2[C@H](NC(=O)[C@H](N)c3ccccc3)C(=O)N2[C@H]1C(=O)O [ampicillin],sensitivity of ERINLG-201 towards antibiotic,[10],sensitivity
O=C(Cc1cccs1)N[C@@H]1C(=O)N2C(C(=O)[O-])=C(C[n+]3ccccc3)CS[C@H]12 [cephaloridine],sensitivity of ERINLG-201 towards antibiotic,[10],sensitivity
O=C(O)c1cn(C2CC2)c2cc(N3CCNCC3)c(F)cc2c1=O [ciprofloxacin],sensitivity of ERINLG-201 towards antibiotic,[10],sensitivity
CC[C@H]1OC(=O)[C@H](C)[C@@H](O[C@H]2C[C@@](C)(OC)[C@@H](O)[C@H](C)O2)[C@H](C)[C@@H](O[C@@H]2O[C@H](C)C[C@H](N(C)C)[C@H]2O)[C@](C)(O)C[C@@H](C)C(=O)[C@H](C)[C@@H](O)[C@]1(C)O [erythromycin],sensitivity of ERINLG-201 towards antibiotic,[10],sensitivity
CCn1cc(C(=O)O)c(=O)c2cc(F)c(N3CCNCC3)cc21 [norfloxacin],sensitivity of ERINLG-201 towards antibiotic,[10],sensitivity
CO[C@H]1/C=C/O[C@@]2(C)Oc3c(C)c(O)c4c(O)c(cc(O)c4c3C2=O)NC(=O)/C(C)=C\C=C\[C@H](C)[C@H](O)[C@@H](C)[C@@H](O)[C@@H](C)[C@H](OC(C)=O)[C@@H]1C [rifamycin],sensitivity of ERINLG-201 towards antibiotic,[10],sensitivity
gentamicin,sensitivity of ERINLG-201 towards antibiotic,[10],sensitivity
penicillin,sensitivity of ERINLG-201 towards antibiotic,[10],sensitivity
vencomycin,sensitivity of ERINLG-201 towards antibiotic,[10],sensitivity
